Results taken from US11530244B2, “Cyclic polypeptides for PCSK9 inhibition” (priority 2018, dated 2022).
Starred links: 1 amine or outer side, 2 acyl side, 3 side chain; linkers in the order of their positions; H or OH if unused. Positions of bridges follow the written chain, without caps; N, C: chain ends. Non-standard residues stand in square brackets, D forms with d. Residues, ends and D or L forms follow the SMILES beside them. Groups on a side chain read outwards from the residue. *: point of attachment. X1 = O=C1CC[C@@H](C(=O)[*:1])N1CCCSCc1cccc(C[*:2])c1; Trp(5-OH) = N[C@@H](Cc1c[nH]c2ccc(O)cc12)C(=O)O; Trp(5-F) = N[C@@H](Cc1c[nH]c2ccc(F)cc12)C(=O)O; Phe(4-CH2NH2) = NCc1ccc(C[C@H](N)C(=O)O)cc1; mXylylene(5-F) = Fc1cc(C[*:1])cc(C[*:2])c1; Pro(cis-4-F) = O=C(O)[C@@H]1C[C@H](F)CN1; isoGln = NC(=O)[C@H](CCC(=O)[*:2])N[*:1]; Nle(6-COOH) = N[C@@H](CCCCC(=O)O)C(=O)O; X4 = O=C(CCSCc1cccc(CSCCN[*:1])c1)[*:2]; γGlu = O=C(O)[C@H](CCC(=O)[*:2])N[*:1]; mXylylene = c1cc(C[*:1])cc(C[*:2])c1; AEF = NCCOc1ccc(C[C@H](N)C(=O)O)cc1; d(aThr) = C[C@@H](O)[C@@H](N)C(=O)O; Glutaryl = O=C(CCCC(=O)[*:2])[*:1]; Palmitoyl = CCCCCCCCCCCCCCCC(=O)*; X7 = O=C(Cc1ccc(CN[*:1])cc1)[*:2]; X46 = O=C(C[*:2])NCCCCC(=O)[*:1]; X8 = Clc1cc(C[*:1])cc(C[*:2])c1; NMeL = CN[C@@H](CC(C)C)C(=O)O; αMeP = C[C@@]1(C(=O)O)CCCN1; AEEA = NCCOCCOCC(=O)O; X2 = O=C(C[*:2])[*:1]; Glycolyl = O=C(CO)*; Mpa = O=C(O)CCS

Columns and labels:
Type in all cases: binding
[1] = target: T1, PCSK9 (Homo sapiens (Human), UniProt Q8NBP7); test: PCSK9 Alexa FRET Plus assay (displacement of AlexaFluor647 tagged cyclic peptide Reagent B); conditions: 0.5 nM PCSK9, 960 nM AF cyclic peptide Reagent B
T1 sequence (Q8NBP7 153-692): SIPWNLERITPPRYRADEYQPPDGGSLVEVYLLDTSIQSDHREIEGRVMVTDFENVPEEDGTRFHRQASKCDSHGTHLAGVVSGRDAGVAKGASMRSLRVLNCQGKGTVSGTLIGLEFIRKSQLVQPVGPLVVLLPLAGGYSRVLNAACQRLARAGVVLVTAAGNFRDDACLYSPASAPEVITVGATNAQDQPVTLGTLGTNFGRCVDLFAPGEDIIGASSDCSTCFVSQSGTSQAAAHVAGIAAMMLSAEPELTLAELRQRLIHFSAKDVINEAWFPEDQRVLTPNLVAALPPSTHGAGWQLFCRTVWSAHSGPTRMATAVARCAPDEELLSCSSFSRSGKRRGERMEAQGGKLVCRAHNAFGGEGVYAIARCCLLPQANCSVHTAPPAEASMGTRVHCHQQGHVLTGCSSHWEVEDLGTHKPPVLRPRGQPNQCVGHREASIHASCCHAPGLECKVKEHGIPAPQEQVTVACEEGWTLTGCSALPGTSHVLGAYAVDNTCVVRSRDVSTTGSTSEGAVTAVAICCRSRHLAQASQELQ
Procedure, shortened: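 TR-FRET displacement with final 0.5 nM biotinylated PCSK9, 1.25 nM Strep-Eu and 960 nM AlexaFluor-tagged cyclic peptide in HEPES pH 7.4, NaCl, CaCl2, BSA, P20; ≥2 h at room temperature. IC50 from sigmoidal fit, converted to Ki using peptide KD. Falling europium counts flagged false positives.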

[2] = target: human PCSK9 / human LDLR EGFa domain interaction (Homo sapiens (Human), UniProt Q8NBP7); test: TR-FRET assay of inhibition of the PCSK9-LDLR protein-protein interaction; conditions: TR-FRET, 20 nM human PCSK9, 20 nM human LDLR EGFa domain, 2 hours room temperature; read-out: IC50
Chain of human PCSK9 / human LDLR EGFa domain interaction (Q8NBP7 153-692): as above
Chain of human PCSK9 / human LDLR EGFa domain interaction (Q8NBP7 31-152 partner): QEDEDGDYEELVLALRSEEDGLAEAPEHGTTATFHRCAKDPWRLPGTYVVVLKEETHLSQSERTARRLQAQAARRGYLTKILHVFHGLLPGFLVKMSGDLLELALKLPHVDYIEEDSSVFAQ
Procedure, shortened: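 Inhibition of PCSK9 binding to the LDLR EGFa domain, each protein at 20 nM, detected by TR-FRET using streptavidin and anti-His donor/acceptor labels (5 nM). Two-hour room-temperature incubation in calcium-containing HEPES buffer.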

[3] = target: T1, PCSK9; test: PCSK9 Alexa FRET Standard assay (displacement of AlexaFluor647 tagged cyclic peptide Reagent A); conditions: 0.5 nM PCSK9, 20 nM AF cyclic peptide Reagent A
Procedure, shortened: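 TR-FRET displacement: 0.5 nM biotinylated PCSK9 with 1.25 nM Strep-Eu and 20 nM AlexaFluor-tagged cyclic peptide (final) in 50 mM HEPES pH 7.4, 0.15 M NaCl, 5 mM CaCl2, 0.01% BSA, 0.01% P20, ≥2 h at room temperature. IC50 from sigmoidal fit, converted to Ki via peptide KD; falling Eu counts flagged false positives.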

[4] = Alexa FRET Plus, read-out: IC50
[5] = PCSK9 Alexa FRET Standard assay, read-out: IC50

SMILES	IC50 [1, 4] [nM]	IC50 [2] [nM]	IC50 [3, 5] [nM]	IC50 ([1]; IC50, Alexa FRET Plus) [nM]	IC50 ([3]; IC50, PCSK9 Alexa FRET Standard assay) [nM]
C[C@@]12CCCN1C(=O)[C@H](Cc1ccc(O)cc1)NC(=O)[C@H](Cc1cnc[nH]1)NC(=O)[C@H](CC(=O)O)NC(=O)[C@H](Cc1c[nH]c3ccc(O)cc13)NC(=O)[C@H](Cc1c[nH]c3ccc(F)cc13)NC(=O)CNC(=O)[C@H](CCCCN)NC(=O)CCSCc1cccc(c1)CSC[C@@H](C(N)=O)NC2=O [Compound 399] ([Mpa]KG[Trp(5-F)][Trp(5-OH)]DHY[αMeP]C-NH2; linker 1-10 via mXylylene)	100 to 500	0.1 to 100	0.11 to 100	–	–
CC(=O)N[C@H]1CCCCNC(=O)COc2ccc(cc2)C[C@@H](C(N)=O)NC(=O)[C@]2(C)CCCN2C(=O)[C@H](Cc2ccc(O)cc2)NC(=O)[C@H](Cc2cnc[nH]2)NC(=O)[C@H](CC(=O)O)NC(=O)[C@H](Cc2c[nH]c3ccc(F)cc23)NC(=O)[C@H](Cc2c[nH]c3ccc(F)cc23)NC(=O)CNC1=O [Compound 365] (Ac-KG[Trp(5-F)][Trp(5-F)]DHY[αMeP]Y-NH2; linker 1-9 via X2)	0.1 to 100	0.1 to 100	0.11 to 100	–	–
CC[C@H](C)[C@@H]1NC(=O)[C@@H]2CCCN2C(=O)[C@H](Cc2c[nH]c3ccc(F)cc23)NC(=O)[C@H](Cc2c[nH]c3ccc(F)cc23)NC(=O)[C@@H](C)NC(=O)[C@H](CCCCN)NC(=O)CCSCc2cccc(c2)CSC[C@@H](C(N)=O)NC(=O)[C@]2(C)CCCN2C(=O)[C@H](Cc2ccc(OC)cc2)NC1=O [Compound 007] ([Mpa]K[dA][Trp(5-F)][Trp(5-F)]PIY(Me)[αMeP]C-NH2; linker 1-10 via mXylylene)	500 to 5000	0.1 to 100	100 to 1000	–	–
CC(C)C[C@@H]1NC(=O)[C@@H]2CCCN2C(=O)[C@H](Cc2c[nH]c3ccc(F)cc23)NC(=O)[C@H](Cc2c[nH]c3ccc(F)cc23)NC(=O)CNC(=O)[C@H](CCCCN)NC(=O)CCSCc2cccc(c2)CSC[C@@H](C(N)=O)NC(=O)[C@]2(C)CCCN2C(=O)[C@H](Cc2ccc(O)cc2)NC1=O [Compound 004] ([Mpa]KG[Trp(5-F)][Trp(5-F)]PLY[αMeP]C-NH2; linker 1-10 via mXylylene)	100 to 500	0.1 to 100	0.11 to 100	–	–
COc1ccc(C[C@@H]2NC(=O)[C@H](C(C)C)NC(=O)[C@@H]3CCCN3C(=O)[C@H](Cc3c[nH]c4ccc(F)cc34)NC(=O)[C@H](Cc3c[nH]c4ccc(F)cc34)NC(=O)[C@@H](C)NC(=O)[C@H](CCCCN)NC(=O)CCSCc3cc(F)cc(c3)CSC[C@@H](C(N)=O)NC(=O)[C@]3(C)CCCN3C2=O)cc1 [Compound 010] ([Mpa]K[dA][Trp(5-F)][Trp(5-F)]PVY(Me)[αMeP]C-NH2; linker 1-10 via mXylylene(5-F))	500 to 5000	0.1 to 100	100 to 1000	–	–
COc1ccc(C[C@@H]2NC(=O)[C@@H]([C@@H](C)O)NC(=O)[C@H](CCCCC(=O)O)NC(=O)[C@H](Cc3c[nH]c4ccc(F)cc34)NC(=O)[C@H](Cc3ccc(CN)cc3)NC(=O)[C@@H](C)NC(=O)[C@H](C)NC(=O)CCSCc3cccc(c3)CSCCNC(=O)[C@]3(C)CCCN3C2=O)cc1 [Compound 385] (cyclo(A[dA][Phe(4-CH2NH2)][Trp(5-F)][Nle(6-COOH)][d(aThr)]Y(Me)[αMeP][X4]))	0.1 to 100	0.1 to 100	0.11 to 100	–	–
C[C@@H]1NC(=O)CCCC(=O)NCc2ccc(cc2)C[C@@H](C(N)=O)NC(=O)[C@]2(C)CCCN2C(=O)[C@H](Cc2ccc(O)cc2)NC(=O)[C@H](Cc2cnc[nH]2)NC(=O)[C@H](CC(=O)O)NC(=O)[C@H](Cc2c[nH]c3ccc(F)cc23)NC(=O)[C@H](Cc2c[nH]c3ccc(F)cc23)NC(=O)CNC1=O [Compound 366] (AG[Trp(5-F)][Trp(5-F)]DHY[αMeP][Phe(4-CH2NH2)]-NH2; linker N-9 via Glutaryl)	0.1 to 100	0.1 to 100	0.11 to 100	–	–
COc1ccc(C[C@@H]2NC(=O)[C@@H](CC(C)C)NC(=O)[C@H]([C@@H](C)OC)NC(=O)CCSCc3cccc(c3)CSC[C@@H](C(N)=O)NC(=O)[C@]3(C)CCCN3C(=O)[C@H](Cc3ccc(OC)cc3)NC(=O)[C@H]([C@@H](C)OC)NC(=O)[C@H](CC(C)C)N(C)C(=O)[C@H](Cc3ccc(OC)cc3)NC2=O)cc1 [Compound 035] ([Mpa]T(Me)[dL]Y(Me)Y(Me)[NMeL]T(Me)Y(Me)[αMeP]C-NH2; linker 1-10 via mXylylene)	0.1 to 100	0.1 to 100	0.11 to 100	–	–
C[C@@]12CCCN1C(=O)[C@H](Cc1ccc(O)cc1)NC(=O)[C@H](Cc1c[nH]cn1)NC(=O)[C@H](CC(=O)O)NC(=O)[C@H](Cc1c[nH]c3ccc(F)cc13)NC(=O)[C@H](Cc1c[nH]c3ccc(F)cc13)NC(=O)CNC(=O)[C@H](CCCCN)NC(=O)CCSCc1cc(Cl)cc(c1)CSC[C@@H](C(N)=O)NC2=O [Compound 358] ([Mpa]KG[Trp(5-F)][Trp(5-F)]DHY[αMeP]C-NH2; linker 1-10 via X8)	100 to 500	0.1 to 100	0.11 to 100	–	–
COc1ccc(C[C@@H]2NC(=O)[C@@H]3CCCCC(=O)N[C@H]4C[C@@H](C(=O)N3)N(C4)C(=O)[C@H](Cc3c[nH]c4ccc(F)cc34)NC(=O)[C@H](Cc3c[nH]c4ccc(F)cc34)NC(=O)[C@@H](C)NC(=O)[C@H](CCCN=[N+]=[N-])NC(=O)CCSCc3cccc(c3)CCSCNC(=O)[C@]3(C)CCCN3C2=O)cc1 [Compound 520]	0.1 to 100	0.1 to 100	0.11 to 100	–	–
COc1ccc(C[C@@H]2NC(=O)[C@H](Cc3cnc[nH]3)NC(=O)[C@H](CC(=O)O)NC(=O)[C@H](Cc3c[nH]c4ccc(F)cc34)NC(=O)[C@H](Cc3c[nH]c4ccc(F)cc34)NC(=O)[C@@H](C)NC(=O)[C@H](NC(C)=O)CCCCNC(=O)Cc3ccc(cc3)CNC(=O)CC[C@@H](C(N)=O)NC(=O)[C@]3(C)CCCN3C2=O)cc1 [Compound 398] (Ac-[dK][dA][Trp(5-F)][Trp(5-F)]DHY(Me)[αMeP][isoGln][X7]; lactam 1-C)	100 to 500	0.1 to 100	0.11 to 100	–	–
C[C@@]12CCCN1C(=O)[C@H](Cc1ccc(O)cc1)NC(=O)[C@H](Cc1c[nH]cn1)NC(=O)[C@H](CC(=O)O)NC(=O)[C@H](Cc1c[nH]c3ccc(F)cc13)NC(=O)[C@H](Cc1c[nH]c3ccc(F)cc13)NC(=O)CNC(=O)[C@@H]1CCC(=O)N1CCCSCc1cccc(c1)CSC[C@@H](C(N)=O)NC2=O [Compound 481] (G[Trp(5-F)][Trp(5-F)]DHY[αMeP]C-NH2; linker N-8 via X1)	500 to 5000	–	1000 to 12100	–	–
COc1ccc(C[C@@H]2NC(=O)[C@H]([C@@H](C)O)NC(=O)[C@@H]3C[C@H](F)CN3C(=O)[C@H](Cc3c[nH]c4ccc(F)cc34)NC(=O)[C@H](Cc3c[nH]c4ccc(F)cc34)NC(=O)[C@@H](C)NC(=O)[C@H](CCCCN)NC(=O)[C@@H](NC(=O)CO)CC(=O)NCCOc3ccc(cc3)C[C@@H](C(N)=O)NC(=O)[C@]3(C)CCCN3C2=O)cc1 [Compound 116] (Glycolyl-DK[dA][Trp(5-F)][Trp(5-F)][Pro(cis-4-F)]TY(Me)[αMeP][AEF]-NH2; lactam 1-10)	500 to 5000	–	21000 to 50000	–	–
C[C@@]12CCCN1C(=O)[C@H](Cc1ccc(O)cc1)NC(=O)[C@H]1CS[C@H]3CC[C@H](NC(=O)[C@H](Cc4c[nH]c5ccc(F)cc45)NC(=O)[C@H](Cc4c[nH]c5ccc(F)cc45)NC(=O)CNC(=O)[C@H](CCCCN)NC(=O)CCSCc4cccc(c4)CSC[C@@H](C(N)=O)NC2=O)C(=O)N31 [Compound 475]	500 to 5000	–	21000 to 50000	–	–
CCCCCCCCCCCCCCCC(=O)N[C@@H](CCC(=O)NCCOCCOCC(=O)NCCOCCOCC(=O)NCc1ccc(C[C@@H]2NC(=O)[C@@H](C)NC(=O)[C@H](CCCCN)NC(=O)CCSCc3cccc(c3)CSC[C@@H](C(N)=O)NC(=O)[C@]3(C)CCCN3C(=O)[C@H](Cc3ccc(O)cc3)NC(=O)[C@H](Cc3cnc[nH]3)NC(=O)[C@H](CC(=O)O)NC(=O)[C@H](Cc3c[nH]c4ccc(F)cc34)NC2=O)cc1)C(=O)O [Compound 453] ([Mpa]K[dA][Phe(4-CH2NH2)]([AEEA-AEEA-γGlu-Palmitoyl])[Trp(5-F)]DHY[αMeP]C-NH2; linker 1-10 via mXylylene)	0.1 to 100	–	0.11 to 100	–	–
C[C@@]12CCCN1C(=O)[C@H](Cc1ccc(O)cc1)NC(=O)CN1C(=O)[C@H](N=C(c3ccccc3)c3ccccc31)NC(=O)[C@H](Cc1c[nH]c3ccc(F)cc13)NC(=O)[C@H](Cc1c[nH]c3ccc(F)cc13)NC(=O)CNC(=O)[C@H](CCCCN)NC(=O)CCSCc1cccc(c1)CSC[C@@H](C(N)=O)NC2=O [Compound 121]	–	–	–	0.1 to 100	0.11 to 100
COc1ccc(C[C@@H]2NC(=O)[C@H]([C@@H](C)O)NC(=O)[C@@H]3C[C@H](F)CN3C(=O)[C@H](Cc3c[nH]c4ccc(F)cc34)NC(=O)[C@H](Cc3c[nH]c4ccc(F)cc34)NC(=O)[C@@H](C)NC(=O)[C@H](CCCCN)NC(=O)CCCCNC(=O)COc3ccc(cc3)C[C@@H](C(N)=O)NC(=O)[C@]3(C)CCCN3C2=O)cc1 [Compound 117] (K[dA][Trp(5-F)][Trp(5-F)][Pro(cis-4-F)]TY(Me)[αMeP]Y-NH2; linker N-9 via X46)	500 to 5000	–	0.11 to 100	–	–
